Data from ChEMBL document CHEMBL1955749, “Synthesis and anti-influenza activity of aminoalkyl rupestonates” (Bioorg Med Chem Lett, 2012).
The source made the active and inactive calls. The calls are words filed in the database; no cut-off is given here.

How the values were obtained:
[1] = Cytotoxicity against MDCK cells; assay type: cell-based, Canis lupus familiaris; conditions: dog, read-out: TC50 (the source's name)
[2] = Selectivity index, ratio of TC50 for MDCK cells to IC50 for influenza A virus H1N1; assay type: toxicity, cell-based; conditions: dog, read-out: Selectivity Index
Influenza A virus [3] = experiment: Antiinfluenza activity against influenza A virus H1N1 infected in MDCK cells assessed as inhibition of virus-induced cytopathic effect after 36 hrs; assay type: functional, organism-based
Influenza B virus [4] = experiment: Antiinfluenza activity against influenza B virus infected in MDCK cells assessed as inhibition of virus-induced cytopathic effect after 36 hrs; assay type: functional, organism-based
Influenza A virus [5] = experiment: Antiinfluenza activity against influenza A virus H3N2 infected in MDCK cells assessed as inhibition of virus-induced cytopathic effect after 36 hrs; assay type: functional, organism-based
Influenza A virus [6] = experiment: Antiinfluenza activity against influenza A virus; assay type: functional, organism-based
[7] = Selectivity index, ratio of TC50 for MDCK cells to IC50 for influenza A virus H3N2; assay type: toxicity, cell-based; conditions: dog, read-out: Selectivity Index
[8] = Selectivity index, ratio of TC50 for MDCK cells to IC50 for influenza B virus; assay type: toxicity, cell-based; conditions: dog, read-out: Selectivity Index
Influenza A virus [9] = experiment: Antiinfluenza activity against influenza A virus H3N2 infected in MDCK cells assessed as inhibition of virus-induced cytopathic effect at 0.15 to 1.37 ug/ml after 36 hrs; assay type: functional, organism-based
Influenza B virus [10] = experiment: Antiinfluenza activity against influenza B virus; assay type: functional, organism-based
Influenza A virus [11] = experiment: Antiinfluenza activity against influenza A virus H1N1; assay type: functional, organism-based
Influenza A virus [12] = experiment: Antiinfluenza activity against influenza A virus H3N2; assay type: functional, organism-based

| Structure (SMILES) | CC50 [1] [µM] | selectivity ratio [2] | IC50 (Influenza A virus [3]) [µM] | IC50 (Influenza B virus [4]) [µM] | IC50 (Influenza A virus [5]) [µM] | IC50 (Influenza A virus [6]) [µM] | selectivity ratio [7] | selectivity ratio [8] | inhibition (Influenza A virus [9]) | IC50 (Influenza B virus [10]) [µM] | IC50 (Influenza A virus [11]) [µM] | IC50 (Influenza A virus [12]) [µM] |
| --- | --- | --- | --- | --- | --- | --- | --- | --- | --- | --- | --- | --- |
| C=C(C(=O)OCCCCCN1CCN(c2ccccc2)CC1)[C@@H]1CC[C@H](C)[C@@H]2CC(=O)C(C)=C2C1 | 112 | 5.6 | 20 | > 25.8 | > 25.7 |  |  |  |  |  |  |  |
| C=C(C(=O)O)[C@@H]1CC[C@H](C)[C@@H]2CC(=O)C(C)=C2C1c1ccc(C(C)(C)C)cc1 (stereo partly specified) |  |  |  |  |  | 0.5 |  |  |  |  |  |  |
| C=C(C(=O)OCCCN1CCN(c2ccccc2)CC1)[C@@H]1CC[C@H](C)[C@@H]2CC(=O)C(C)=C2C1 | 171 | 2.7 | 63.9 | > 11.2 | 57.1 |  | 3 |  |  |  |  |  |
| C=C(C(=O)OCCCCCCN1CCN(C)CC1)[C@@H]1CC[C@H](C)[C@@H]2CC(=O)C(C)=C2C1 | 86 |  | > 9.6 | > 9.6 | > 9.6 |  |  |  |  |  |  |  |
| C=C(C(=O)OCCCN1CCN(C)CC1)[C@@H]1CC[C@H](C)[C@@H]2CC(=O)C(C)=C2C1 | 667 |  | > 95.5 | > 95.5 | > 95.5 |  |  |  |  |  |  |  |
| C=C(C(=O)OCCCCCCCCCCn1cncn1)[C@@H]1CC[C@H](C)[C@@H]2CC(=O)C(C)=C2C1 | 27.1 | 65 | 0.42 | 11.3 | 0.97 |  | 28.1 | 2.4 | Active |  |  |  |
| C=C(C(=O)OCCCCCCCCn1cncn1)[C@@H]1CC[C@H](C)[C@@H]2CC(=O)C(C)=C2C1 | 202 | 28 | 7.2 | 3.2 | 5.2 |  | 38.8 | 62.9 |  |  |  |  |
| C=C(C(=O)OCCCCCCBr)[C@@H]1CC[C@H](C)[C@@H]2CC(=O)C(C)=C2C1 | 469 | 11.8 | 39.6 | 52.1 | 52.1 |  | 9 | 9 |  |  |  |  |
| C=C(C(=O)OCCCCCCCCCCN1CCN(c2ccccc2)CC1)[C@@H]1CC[C@H](C)[C@@H]2CC(=O)C(C)=C2C1 | 456 | 188 | 2.4 | > 152 | 94 |  | 4.9 |  | Active |  |  |  |
| C=C(C(=O)OCCn1cncn1)[C@@H]1CC[C@H](C)[C@@H]2CC(=O)C(C)=C2C1 | 224 | 2.68 | 83.8 | > 8 | 74.9 |  | 3 |  |  |  |  |  |
| C=C(C(=O)OCCCCN1CCN(C)CC1)[C@@H]1CC[C@H](C)[C@@H]2CC(=O)C(C)=C2C1 | 644 | 62.8 | 10.3 | > 92.1 | 71.5 |  | 9 |  |  |  |  |  |
| C=C(C(=O)OCCCCCn1cncn1)[C@@H]1CC[C@H](C)[C@@H]2CC(=O)C(C)=C2C1 | 672 | 90.8 | 7.4 | 17.3 | 17.3 |  | 38.9 | 38.9 |  |  |  |  |
| NC(=O)c1ncn([C@@H]2O[C@H](CO)[C@@H](O)[C@H]2O)n1 [RIBAVIRIN] | 1280 | 666 | 1.9 | 14.7 | 3.9 |  | 329 | 86.9 |  |  |  |  |
| C=C(C(=O)OCCCCCN1CCN(C)CC1)[C@@H]1CC[C@H](C)[C@@H]2CC(=O)C(C)=C2C1 | 207 | 12.1 | 17.1 | 20.6 | 20.6 |  | 10.1 | 10.1 |  |  |  |  |
| C=C(C(=O)OCCN1CCN(C)CC1)[C@@H]1CC[C@H](C)[C@@H]2CC(=O)C(C)=C2C1 | 231 | 1.8 | 129 | > 33 | > 33 |  |  |  |  |  |  |  |
| C=C(C(=O)OCCCCBr)[C@@H]1CC[C@H](C)[C@@H]2CC(=O)C(C)=C2C1 | 420 | 5.6 | 75.2 | 67.2 | 75.2 |  | 5.6 | 6.2 |  |  |  |  |
| C=C(C(=O)OCCCCN1CCN(c2ccccc2)CC1)[C@@H]1CC[C@H](C)[C@@H]2CC(=O)C(C)=C2C1 | 415 | 5.2 | 79.8 | > 79.8 | > 79.8 |  |  |  |  |  |  |  |

| Structure (SMILES) | CC50 [1] [µM] | selectivity ratio [2] | IC50 (Influenza A virus [3]) [µM] | IC50 (Influenza B virus [4]) [µM] | IC50 (Influenza A virus [5]) [µM] | IC50 (Influenza A virus [6]) [µM] | selectivity ratio [7] | selectivity ratio [8] | inhibition (Influenza A virus [9]) | IC50 (Influenza B virus [10]) [µM] | IC50 (Influenza A virus [11]) [µM] | IC50 (Influenza A virus [12]) [µM] |
| --- | --- | --- | --- | --- | --- | --- | --- | --- | --- | --- | --- | --- |
| C=C(C(=O)OCCCCCCCCCCN1CCN(C)CC1)[C@@H]1CC[C@H](C)[C@@H]2CC(=O)C(C)=C2C1 | 177 | 47.6 | 3.7 | > 25.4 | 5.2 |  | 34 |  | Active |  |  |  |
| C=C(C(=O)OCCCCCCCCBr)[C@@H]1CC[C@H](C)[C@@H]2CC(=O)C(C)=C2C1 | 146 | 11.8 | 12.4 | > 28.2 | 14.1 |  | 10.4 |  |  |  |  |  |
| C=C(C(=O)OCCCCCCn1cncn1)[C@@H]1CC[C@H](C)[C@@H]2CC(=O)C(C)=C2C1 | 120 | 2.48 | 48.2 | > 31 | 14.9 |  | 8 |  |  |  |  |  |
| C=C(C(=O)OCCCBr)[C@@H]1CC[C@H](C)[C@@H]2CC(=O)C(C)=C2C1 | 436 |  | > 101 | > 101 | > 101 |  |  |  |  |  |  |  |
| C=C(C(=O)OCCCl)[C@@H]1CC[C@H](C)[C@@H]2CC(=O)C(C)=C2C1 |  |  |  |  |  |  |  |  |  | 358 | 27.8 | 17.2 |
| C=C(C(=O)O)[C@@H]1CC[C@H](C)[C@@H]2CC(=O)C(C)=C2C1 [PECHUELOIC ACID] | 4650 |  | > 1340 | > 4030 | 25.8 |  | 181 |  |  |  |  |  |
| C=C(C(=O)OCCCCCCN1CCN(c2ccccc2)CC1)[C@@H]1CC[C@H](C)[C@@H]2CC(=O)C(C)=C2C1 | 394 |  | > 56.5 | > 56.5 | > 56.5 |  |  |  |  |  |  |  |
| C=C(C(=O)OCCCCCBr)[C@@H]1CC[C@H](C)[C@@H]2CC(=O)C(C)=C2C1 | 54 | 2.8 | 19.3 | > 31.2 | 19.3 |  | 2.8 |  |  |  |  |  |
| CCOC(=O)C1=C[C@@H](OC(CC)CC)[C@H](NC(C)=O)[C@@H](N)C1 [OSELTAMIVIR PHOSPHATE] | 1260 | 81.3 | 15.5 | > 500 | 1.1 |  | 1140 |  |  |  |  |  |
| C=C(C(=O)OCCCCCCCCCCBr)[C@@H]1CC[C@H](C)[C@@H]2CC(=O)C(C)=C2C1 | 138 | 20.5 | 6.7 | > 26.5 | 16.4 |  | 8.4 |  | Active |  |  |  |
| C=C(C(=O)OCCBr)[C@@H]1CC[C@H](C)[C@@H]2CC(=O)C(C)=C2C1 | 1360 |  | > 314 | > 314 | > 314 |  |  |  |  |  |  |  |
| C=C(C(=O)OCCCCn1cncn1)[C@@H]1CC[C@H](C)[C@@H]2CC(=O)C(C)=C2C1 | 386 | 6.7 | 57.6 | 77.5 | 42.9 |  | 9 | 5 |  |  |  |  |
| C=C(C(=O)OCCCCCCCCN1CCN(C)CC1)[C@@H]1CC[C@H](C)[C@@H]2CC(=O)C(C)=C2C1 | 188 |  | > 26.9 | > 26.9 | > 26.9 |  |  |  |  |  |  |  |
| C=C(C(=O)OCCCn1cncn1)[C@@H]1CC[C@H](C)[C@@H]2CC(=O)C(C)=C2C1 | 311 | 13 | 24 | > 34.6 | 34.6 |  | 9 |  |  |  |  |  |
| C=C(C(=O)OCCCCCCCCN1CCN(c2ccccc2)CC1)[C@@H]1CC[C@H](C)[C@@H]2CC(=O)C(C)=C2C1 | 333 | 3.6 | 92.6 | > 160 | > 160 |  |  |  |  |  |  |  |
| C=C(C(=O)OCCN1CCN(c2ccccc2)CC1)[C@@H]1CC[C@H](C)[C@@H]2CC(=O)C(C)=C2C1 | 445 | 9 | 49.4 | 49.4 | 49.4 |  | 9 | 9 |  |  |  |  |
